{"source": "patent US20160252494A1", "about": "“MICROSCALE MICROPATTERNED ENGINEERED IN VITRO TISSUE” (priority 2005, published 2016)", "key": {"[1]": {"tested_on": "micropatterned human co-cultures (primary human hepatocytes with 3T3-J2 fibroblasts)", "details": "MTT", "description": "Cultures were incubated with various concentrations of compounds dissolved in culture medium for 24 hours (acute toxicity) or extended time periods (chronic toxicity, 1-4 days). Cell viability was subsequently measured via the MTT (3-(4,5-dimethylthiazol-2-yl)-2,5-diphenyl tetrazolium bromide; Sigma) assay, which involves cleavage of the tetrazolium ring by mitochondrial dehydrogenase enzymes to form a purple precipitate. MTT was added to cells in DMEM without phenol red at a concentration of 0.5 mg/mL. After an incubation time of 1 hour, the purple precipitate was dissolved in a 1:1 solution of DMSO and Isopropanol. The absorbance of the solution was measured at 570 nm (SpectraMax spectrophotometer, Molecular Devices, Sunnyvale, Calif.).\nUse of optimized micropatterned human co-cultures to evaluate metabolism and toxicity of xenobiotics. […] Acute toxicity tests involved incubating eight day old co-cultures for 24 hrs with various drugs, some with known clinical hepatotoxic potential. After the incubation time period, the cell culture medium was aspirated and a viability assay was conducted (MTT assay—commercially available). […]\nTo assess utility of the microscale human liver tissue for toxicity assays, the acute and chronic toxicity of model hepatotoxins were quantified. […]"}, "[2]": {"tested_on": "CYP2B"}, "[3]": {"tested_on": "CYP1A2", "details": "human and rat, 4 days, 50 µM"}, "[4]": {"tested_on": "CYP2A6", "quoted_text": "The reactions were stopped by collection of the incubation medium. Then, potential metabolite conjugates formed via Phase II activity were hydrolyzed by incubation of supernatants with β-glucuronidase/arylsulfatase (Roche, IN) for 2 hours at 37° C. Samples were diluted 1:1 in quenching solution and fluorescent metabolite formation was quantified by means of a fluorescence micro-plate reader (Molecular Devices, Sunnyvale, Calif.) as described elsewhere in detail. Production of 7-HC from CM is a reaction (CM 7-Hydroxylation) mediated by CYP2A6 in humans, production of 7-HFC from BFC or MFC (dealkylation) is mediated by several different CYP450s, and production of RR from ER (ER Odealkylation) is mediated by CYP1A2.\nCytochrome-P450 Induction. Stock solutions of prototypic CYP450 inducers (Sigma) were made in dimethylsulfoxide (DMSO), except for Phenobarbital, which was dissolved in water. Cultures were treated with inducers (Rifampin 25 μM, β-Naphthoflavone 30 μM or 50 μM, Phenobarbital 1 mM, Omeprazole 50 μM) dissolved in hepatocyte culture medium for 4 days. Control cultures were treated with vehicle (DMSO) alone for calculations of fold induction. To enable comparisons across inducers, DMSO levels were kept constant at 0.06% (v/v) for all conditions."}, "[5]": {"tested_on": "CYP3A", "assay": "CYP3A protein induction in static and perfused bioreactor hepatocyte cultures"}, "[6]": {"tested_on": "CYP2B", "assay": "CYP2B protein induction in static and perfused bioreactor hepatocyte cultures"}, "[7]": {"target": "T1, CYP2A6 (Homo sapiens, UniProt P11509)", "T1 sequence (P11509 1-494)": "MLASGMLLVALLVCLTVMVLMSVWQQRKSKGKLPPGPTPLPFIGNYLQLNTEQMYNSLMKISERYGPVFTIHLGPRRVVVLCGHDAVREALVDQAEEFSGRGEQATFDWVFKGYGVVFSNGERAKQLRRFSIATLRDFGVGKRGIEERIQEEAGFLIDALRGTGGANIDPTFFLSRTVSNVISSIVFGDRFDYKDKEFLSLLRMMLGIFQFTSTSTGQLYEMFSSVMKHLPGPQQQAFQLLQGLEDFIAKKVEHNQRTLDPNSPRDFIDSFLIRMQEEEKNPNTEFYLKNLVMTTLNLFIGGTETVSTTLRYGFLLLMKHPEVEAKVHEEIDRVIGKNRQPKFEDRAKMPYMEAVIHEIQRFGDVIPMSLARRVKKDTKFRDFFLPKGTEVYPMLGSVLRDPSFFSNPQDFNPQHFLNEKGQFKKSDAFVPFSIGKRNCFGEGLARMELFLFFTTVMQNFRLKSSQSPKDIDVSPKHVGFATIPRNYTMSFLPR", "quoted_text": "Mitochondrial activity was measured using the MTT assay. All data was normalized to vehicle-only controls. […] ER, Ethoxy-resorufin. […] Error bars represent standard error of the mean (n=3).\nThe reactions were stopped by collection of the incubation medium. Then, potential metabolite conjugates formed via Phase II activity were hydrolyzed by incubation of supernatants with β-glucuronidase/arylsulfatase (Roche, IN) for 2 hours at 37° C. Samples were diluted 1:1 in quenching solution and fluorescent metabolite formation was quantified by means of a fluorescence micro-plate reader (Molecular Devices, Sunnyvale, Calif.) as described elsewhere in detail."}, "[8]": {"tested_on": "CYP1A2", "assay": "Induction of CYP1A2 activity in microscale liver tissues (ethoxyresorufin dealkylation)", "details": "incubation 1 or 3 days, varying dose"}, "[9]": {"tested_on": "CYP3A", "details": "hepatocytes"}, "[10]": {"details": "static cultures, 48 hour induction"}, "[11]": {"details": "treated 4 days with prototypic inducers"}}, "note": "Read-outs that look alike come from different tables or passages of the source.", "data": [{"molecule": "[Cl][Cd][Cl]", "note": "[Cadmium, Cadmium chloride]", "values": [{"measurement": "Relative acute toxicity in vitro", "setting": "[1]; 24 hrs incubation", "result": "severely toxic"}, {"measurement": "Shape of dose-dependent toxicity profile", "setting": "[1]; acute exposure 24 hours", "result": "relatively linear toxic profile"}]}, {"molecule": "C[C@@H]1C[C@H]2[C@@H]3CCC4=CC(=O)C=C[C@]4(C)[C@@]3(F)[C@@H](O)C[C@]2(C)[C@@]1(O)C(=O)CO", "note": "[DEX, dexamethasone]", "values": [{"measurement": "CYP2B induction", "setting": "[2]", "result": "high levels"}]}, {"molecule": "COc1ccc2[nH]c([S+]([O-])Cc3ncc(C)c(OC)c3C)nc2c1", "note": "(stereo not shown) [Omeprazole]", "values": [{"measurement": "Effectiveness of CYP1A2 induction in human over rat models", "setting": "[3]", "result": 8, "unit": "fold"}, {"measurement": "CYP2A6 induction", "setting": "[4]", "result": "weaker effects"}]}, {"molecule": "CCC1(c2ccccc2)C(=O)NC(=O)NC1=O", "note": "[Phenobarbital]", "values": [{"measurement": "CYP3A expression", "setting": "[5]; perfused cultures, 36 hours", "result": "Dramatic expression of both CYPs over controls"}, {"measurement": "CYP3A expression", "setting": "[5]; [10]", "result": "low"}, {"measurement": "CYP2B expression", "setting": "[6]; perfused cultures, 36 hours", "result": "Dramatic expression of both CYPs over controls"}, {"measurement": "CYP2B expression", "setting": "[6]; [10]", "result": "moderate"}, {"measurement": "CYP2A6 induction", "setting": "[4]; [11]", "result": "induction was observed"}]}, {"molecule": "CO[C@H]1/C=C/O[C@@]2(C)Oc3c(C)c(O)c4c(O)c(c(/C=N/N5CCN(C)CC5)c(O)c4c3C2=O)NC(=O)/C(C)=C\\C=C\\[C@H](C)[C@H](O)[C@@H](C)[C@@H](O)[C@@H](C)[C@H](OC(C)=O)[C@@H]1C", "note": "[Rifampin]", "values": [{"measurement": "CYP2A6 induction", "setting": "[4]", "result": "induction was observed"}]}, {"molecule": "COc1c2occc2cc2ccc(=O)oc12", "note": "[methoxsalen, Methoxsalen]", "values": [{"measurement": "Inhibition of CYP2A6 activity", "setting": "[7]", "result": "dose-dependent inhibition"}]}, {"molecule": "O=c1cc(-c2ccccc2)oc2ccc3ccccc3c12", "note": "[β-Naphthoflavone]", "values": [{"measurement": "CYP2A6 induction", "setting": "[4]; [11]", "result": "weaker effects"}, {"measurement": "Induction of CYP1A2 activity", "setting": "[8]", "result": "dose and time-dependent manner"}]}, {"molecule": "EGF: epidermal growth factor, added to perfusion media with PB or DEX", "values": [{"measurement": "Effect on DEX-induced CYP2B", "setting": "[2]", "result": "significant shift in CYP2B spatial distribution was noted from inlet regions to the outlet"}, {"measurement": "Effect on DEX-induced CYP3A induction", "setting": "[9]", "result": "remained uniform"}]}]}
